“And” between values parts separate entries of the source, which are not always exact repeats. Identical values can stand only once. Inconclusive results and toxic doses are left out. Residues, ends and D or L forms follow the SMILES beside them. *: point of attachment. Cbz = O=C(OCc1ccccc1)*; OtBu = CC(C)(C)O*
Test system: CD2F1 mice, L1210 leukemia ip, survival T/C
Assay: NCI In Vivo Anticancer Drug Screen. Data for tumor model L1210 Leukemia (intraperitoneal) in CD2F1 (CDF1) mice
Details: higher = longer survival
Summary of the method: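 Transplantable tumor in mice; compound-treated vs vehicle-treated groups. Read-out = treated/control ratio of the measured endpoint.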

[1] = endpoint: mean survival time, dose: 100.0 mg/kg/injection, schedule: Q04DX003 (ip), vehicle: saline with Tween-80
[2] = endpoint: mean survival time, dose: 200.0 mg/kg/injection, schedule: Q04DX003 (ip), vehicle: saline with Tween-80
[3] = endpoint: mean survival time, dose: 400.0 mg/kg/injection, schedule: Q04DX003 (ip), vehicle: saline with Tween-80
[4] = endpoint: mean survival time, dose: 100.0 mg/kg/injection, schedule: Q01DX001 (ip), vehicle: saline with Tween-80
[5] = endpoint: mean survival time, dose: 100.0 mg/kg/injection, schedule: Q01DX009 (ip), vehicle: saline with Tween-80
[6] = endpoint: mean survival time, dose: 200.0 mg/kg/injection, schedule: Q01DX001 (ip), vehicle: saline with Tween-80
[7] = endpoint: mean survival time, dose: 200.0 mg/kg/injection, schedule: Q01DX009 (ip), vehicle: saline with Tween-80
[8] = endpoint: mean survival time, dose: 400.0 mg/kg/injection, schedule: Q01DX001 (ip), vehicle: saline with Tween-80
[9] = endpoint: mean survival time, dose: 400.0 mg/kg/injection, schedule: Q01DX009 (ip), vehicle: saline with Tween-80
[10] = endpoint: mean survival time, dose: 50.0 mg/kg/injection, schedule: Q01DX009 (ip), vehicle: saline with Tween-80
[11] = endpoint: mean survival time, dose: 25.0 mg/kg/injection, schedule: Q01DX009 (ip), vehicle: saline with Tween-80

Cc1ccc2c(c1)C1(SC(C)C(=O)N1c1ccc(Cl)cc1)C(=O)N2 (configuration not stated)
T/C (endpoint: median survival time, dose: 25.0 mg/kg/injection, schedule: Q01DX005 (ip), vehicle: saline with Tween-80): 107 % of control
T/C (endpoint: median survival time, dose: 50.0 mg/kg/injection, schedule: Q01DX005 (ip), vehicle: saline with Tween-80): 113 % of control
T/C (endpoint: median survival time, dose: 100.0 mg/kg/injection, schedule: Q01DX005 (ip), vehicle: saline with Tween-80): 116 % of control
T/C (endpoint: median survival time, dose: 200.0 mg/kg/injection, schedule: Q01DX005 (ip), vehicle: saline with Tween-80): 116 % of control
T/C (endpoint: median survival time, dose: 400.0 mg/kg/injection, schedule: Q01DX005 (ip), vehicle: saline with Tween-80): 123 % of control

CNc1ccc(C(=O)O)cc1OC
T/C [1]: 100 % of control
T/C [2]: 100 % of control
T/C [3]: 103 % of control

COc1ccc(C(=O)Nc2ccc(Br)cc2)cc1
T/C (endpoint: mean survival time, dose: 100.0 mg/kg/injection, schedule: Q01DX009 (ip), vehicle: saline): 93 % of control
T/C (endpoint: mean survival time, dose: 200.0 mg/kg/injection, schedule: Q01DX009 (ip), vehicle: saline): 108 % of control
T/C (endpoint: mean survival time, dose: 400.0 mg/kg/injection, schedule: Q01DX009 (ip), vehicle: saline): 98 % of control

CCC1(C)CCC2=C(CCC3C(C)(C(=O)O)CCCC23C)C1 (configuration not stated)
T/C [4]: 96 % of control
T/C [5]: 93 % of control
T/C [6]: 91 % of control
T/C [7]: 91 % of control
T/C [8]: 96 % of control

O=C(Nc1cccc2c(NC(=O)c3ccccc3)cccc12)c1ccccc1
T/C [5]: 94 % of control
T/C [7]: 95 % of control
T/C [9]: 91 % of control

CS(=O)(=O)CC1C2CCC(CC2)C1CS(C)(=O)=O (configuration not stated)
T/C [4]: 93 % of control
T/C [6]: 106 % of control
T/C [8]: 92 % of control

Cc1ccc(SC(=O)Cc2ccc([N+](=O)[O-])cc2)cc1
T/C [4]: 92 % of control
T/C [6]: 88 % of control
T/C [8]: 93 % of control

CC(CCC/C=C/CCCN(C)C(=N)N)CC(C)C1OC(=O)C(C)C(O)/C=C/C(C)C(O)C(C)C(O)C(C)C(O)CCCC(O)CC2(O)OC(CC(OC(=O)CC(=O)O)CC(O)CC(O)C(C)C(O)/C=C/C=C/C1C)CC(O)C2O (configuration not stated)
T/C (endpoint: mean survival time, dose: 5.5 mg/kg/injection, schedule: Q01DX009 (ip), vehicle: saline): 100 % of control

CC(C)(C)OC(=O)C[Si](C)(C)C
T/C (endpoint: mean survival time, dose: 12.5 mg/kg/injection, schedule: Q01DX005 (ip), vehicle: Klucel (hydroxypropylcellulose) (HPC)): 90 % of control
T/C (endpoint: mean survival time, dose: 25.0 mg/kg/injection, schedule: Q01DX005 (ip), vehicle: Klucel (hydroxypropylcellulose) (HPC)): 91 % of control
T/C (endpoint: mean survival time, dose: 50.0 mg/kg/injection, schedule: Q01DX005 (ip), vehicle: Klucel (hydroxypropylcellulose) (HPC)): 93 % of control
T/C (endpoint: mean survival time, dose: 100.0 mg/kg/injection, schedule: Q01DX005 (ip), vehicle: Klucel (hydroxypropylcellulose) (HPC)): 90 % of control
T/C (endpoint: mean survival time, dose: 200.0 mg/kg/injection, schedule: Q01DX005 (ip), vehicle: Klucel (hydroxypropylcellulose) (HPC)): 88 % of control
T/C (endpoint: mean survival time, dose: 400.0 mg/kg/injection, schedule: Q01DX005 (ip), vehicle: Klucel (hydroxypropylcellulose) (HPC)): 90 % of control

NC(CNC(=O)CBr)C(=O)O (configuration not stated)
T/C (endpoint: median survival time, dose: 3.0 mg/kg/injection, schedule: Q01DX009 (ip), vehicle: water): 111 % of control
T/C (endpoint: median survival time, dose: 6.0 mg/kg/injection, schedule: Q01DX009 (ip), vehicle: water): 122 % of control and 124 % of control
T/C (endpoint: median survival time, dose: 12.5 mg/kg/injection, schedule: Q01DX009 (ip), vehicle: water): 122 % of control
T/C (endpoint: median survival time, dose: 24.0 mg/kg/injection, schedule: Q01DX009 (ip), vehicle: water): 156 % of control
T/C (endpoint: median survival time, dose: 25.0 mg/kg/injection, schedule: Q01DX009 (ip), vehicle: water): 120 % of control
T/C (endpoint: median survival time, dose: 48.0 mg/kg/injection, schedule: Q01DX009 (ip), vehicle: water): 156 % of control

CC(C)(C)OC(=O)NC(CSC(c1ccccc1)(c1ccccc1)c1ccccc1)C(=O)O (configuration not stated)
T/C (endpoint: mean survival time, dose: 75.0 mg/kg/injection, schedule: Q01DX001 (ip), vehicle: saline): 93 % of control

CCOC(=O)Nc1cc(N)c2ncc(-c3ccc(Cl)cc3)nc2n1
T/C [1]: 91 % of control
T/C [2]: 91 % of control
T/C [3]: 95 % of control

CCSC(C)CC(=O)O (configuration not stated)
T/C (endpoint: mean survival time, dose: 100.0 mg/kg/injection, schedule: Q01DX001 (ip), vehicle: saline): 103 % of control
T/C (endpoint: mean survival time, dose: 200.0 mg/kg/injection, schedule: Q01DX001 (ip), vehicle: saline): 103 % of control

COc1ccc(CNCCCCCCNCc2ccc(OC)cc2)cc1
T/C [10]: 100 % of control
T/C [5]: 95 % of control
T/C [1]: 101 % of control
T/C [2]: 87 % of control

CCC(C)C(NC(=O)OCc1ccccc1)C(=O)NC(C(=O)NC(CCC(=O)OC(C)(C)C)C(=O)OC)C(C)C (stereo not drawn) (Cbz-Ile-Val-Glu(OtBu)-OMe; configuration not given here)
T/C (endpoint: mean survival time, dose: 100.0 mg/kg/injection, schedule: Q04DX003 (ip), vehicle: saline sonified): 88 % of control
T/C (endpoint: mean survival time, dose: 400.0 mg/kg/injection, schedule: Q04DX003 (ip), vehicle: saline sonified): 92 % of control

Cc1ccc(N=C2C=CC(=O)O2)cc1
T/C [1]: 98 % of control
T/C [2]: 104 % of control
T/C [3]: 101 % of control

CC1(Br)CCOC1=O (configuration not stated)
T/C (endpoint: mean survival time, dose: 50.0 mg/kg/injection, schedule: Q04DX002 (ip), vehicle: saline with Tween-80): 98 % of control
T/C (endpoint: mean survival time, dose: 100.0 mg/kg/injection, schedule: Q04DX002 (ip), vehicle: saline with Tween-80): 98 % of control
T/C (endpoint: mean survival time, dose: 200.0 mg/kg/injection, schedule: Q04DX002 (ip), vehicle: saline with Tween-80): 111 % of control

CCCCCCC(=C/c1ccccc1)/C=N/NC(=O)c1ccc[n+](C)c1
T/C [1]: 98 % of control

S=C(NCNC(=S)c1ccncc1)c1ccncc1
T/C (endpoint: median survival time, dose: 25.0 mg/kg/injection, schedule: Q01DX009 (ip), vehicle: saline with Tween-80): 102 % of control
T/C (endpoint: median survival time, dose: 50.0 mg/kg/injection, schedule: Q01DX009 (ip), vehicle: saline with Tween-80): 103 % of control
T/C (endpoint: median survival time, dose: 100.0 mg/kg/injection, schedule: Q01DX009 (ip), vehicle: saline with Tween-80): 106 % of control
T/C (endpoint: median survival time, dose: 200.0 mg/kg/injection, schedule: Q01DX009 (ip), vehicle: saline with Tween-80): 104 % of control
T/C (endpoint: median survival time, dose: 400.0 mg/kg/injection, schedule: Q01DX009 (ip), vehicle: saline with Tween-80): 104 % of control

Cc1c(O)/c(=C\O)c2nc3c(=O)ccc(C(=O)NCCN(C)C)c3[nH]c2c1=O
T/C (endpoint: median survival time, dose: 12.5 mg/kg/injection, schedule: Q01DX005 (ip), vehicle: water): 103 % of control and 110 % of control
T/C (endpoint: median survival time, dose: 18.0 mg/kg/injection, schedule: Q01DX005 (ip), vehicle: water): 115 % of control
T/C (endpoint: median survival time, dose: 25.0 mg/kg/injection, schedule: Q01DX005 (ip), vehicle: water): 114 % of control and 105 % of control

CC1=CC(=O)C(C(C)C)CC1=O (configuration not stated)
T/C (endpoint: mean survival time, dose: 6.25 mg/kg/injection, schedule: Q01DX009 (ip), vehicle: saline with Tween-80): 98 % of control
T/C (endpoint: mean survival time, dose: 12.5 mg/kg/injection, schedule: Q01DX009 (ip), vehicle: saline with Tween-80): 102 % of control
T/C [11]: 95 % of control

NS(=O)(=O)C1CCC(Cl)NC1 (configuration not stated)
T/C [1]: 100 % of control
T/C [2]: 96 % of control
T/C [3]: 102 % of control

C=CC/C(C)=C/C=C/C(C)C(=O)O (configuration not stated)
T/C [5]: 100 % of control
T/C [1]: 98 % of control
T/C [7]: 94 % of control
T/C [2]: 93 % of control
T/C [9]: 104 % of control
T/C [3]: 95 % of control

CC1(C(N)=O)OC12CCCCC2 (configuration not stated)
T/C [1]: 95 % of control
T/C [2]: 97 % of control
T/C [3]: 97 % of control

O=C1OC2CCC13CCCCC3C2 (configuration not stated)
T/C [1]: 96 % of control
T/C [2]: 88 % of control
T/C [3]: 86 % of control

O=S(=O)(O)O.[Ga]
T/C [11]: 120 % of control
T/C [10]: 117 % of control
T/C [5]: 90 % of control

C(=N\N=C(c1ccccc1)c1ccccc1)/c1ccc2c(c1)CCC2
T/C [1]: 87 % of control
T/C [2]: 95 % of control
T/C [3]: 91 % of control

O=P(Oc1ccccc1)(Oc1ccccc1)C(Nc1ccccc1)c1cccnc1 (configuration not stated)
T/C [10]: 102 % of control
T/C [5]: 97 % of control
T/C [7]: 94 % of control

CC(=O)Nc1c(Br)cc2c(c1Br)Cc1cc(N(CCO)CCO)ccc1-2
T/C (endpoint: mean survival time, dose: 50.0 mg/kg/injection, schedule: Q01DX001 (ip), vehicle: carboxymethylcellulose (CMC)): 102 % of control
T/C (endpoint: mean survival time, dose: 100.0 mg/kg/injection, schedule: Q01DX001 (ip), vehicle: carboxymethylcellulose (CMC)): 102 % of control
T/C (endpoint: mean survival time, dose: 200.0 mg/kg/injection, schedule: Q01DX001 (ip), vehicle: carboxymethylcellulose (CMC)): 104 % of control
T/C (endpoint: mean survival time, dose: 400.0 mg/kg/injection, schedule: Q01DX001 (ip), vehicle: carboxymethylcellulose (CMC)): 98 % of control

CC(=O)Nc1nn(C)c(C#N)c1C#N
T/C (endpoint: mean survival time, dose: 37.5 mg/kg/injection, schedule: Q04DX002 (ip), vehicle: saline with Tween-80): 106 % of control
T/C (endpoint: mean survival time, dose: 75.0 mg/kg/injection, schedule: Q04DX002 (ip), vehicle: saline with Tween-80): 106 % of control
T/C (endpoint: mean survival time, dose: 150.0 mg/kg/injection, schedule: Q04DX002 (ip), vehicle: saline with Tween-80): 102 % of control

CCCCCCCCC(=O)O
T/C [1]: 100 % of control
T/C [2]: 100 % of control
T/C [3]: 102 % of control
